{"source": "patent US10925840B2", "about": "“Use of fenoterol and fenoterol analogues in the treatment of glioblastomas and astrocytomas” (priority 2010, dated 2021)", "key": {"[1]": {"assay": "Brain and plasma distribution after single IV administration in rats", "format": "in vivo, male Sprague-Dawley rats", "procedure": "An overview of the research study design for evaluating the brain-to-plasma distribution of [^3H]\n(specific activity 57 Ci/mmol); vehicle was sterile saline, 0.9% sodium chloride, USP. Dose formulations were prepared on the day of the study. The amount of radioactivity in the dose formulation was determined by liquid scintillation. The study lasted for an hour and radioactivity levels in plasma and brain tissue were evaluated at the conclusion of the study. Approximately 5 mls of whole blood was collected. Blood samples were collected via cardiac puncture, transferred into a tube containing K3EDTA as the anticoagulant and kept on wet ice until processed to plasma. To generate plasma, samples were centrifuged within 15 minutes of collection at 2,500 RPM for 15 minutes at room temperature. Plasma was divided equally into three labeled cryovials and stored on ample dry ice until transferred to a freezer set at ≤−20° C. for storage until analysis. Duplicate aliquots were weighed and then combined with scintillation cocktail. The [^3H] radioactivity was determined on a liquid scintillation counter. Brain samples were snap frozen in liquid nitrogen and stored at ≤−70° C. until analysis. Whole brain tissue was homogenized and the weight of the homogenate was determined. Duplicate aliquots from the homogenate were weighed, solubilized and then combined with scintillation cocktail. The [^3H] radioactivity was determined on a liquid scintillation counter."}, "human β2-AR": {"biological_target": "human β2-AR (Homo sapiens (Human), UniProt P07550)"}, "β1-AR": {"biological_target": "β1-AR (Rattus norvegicus (Rat), UniProt P18090)", "sequence (P18090 whole entry)": "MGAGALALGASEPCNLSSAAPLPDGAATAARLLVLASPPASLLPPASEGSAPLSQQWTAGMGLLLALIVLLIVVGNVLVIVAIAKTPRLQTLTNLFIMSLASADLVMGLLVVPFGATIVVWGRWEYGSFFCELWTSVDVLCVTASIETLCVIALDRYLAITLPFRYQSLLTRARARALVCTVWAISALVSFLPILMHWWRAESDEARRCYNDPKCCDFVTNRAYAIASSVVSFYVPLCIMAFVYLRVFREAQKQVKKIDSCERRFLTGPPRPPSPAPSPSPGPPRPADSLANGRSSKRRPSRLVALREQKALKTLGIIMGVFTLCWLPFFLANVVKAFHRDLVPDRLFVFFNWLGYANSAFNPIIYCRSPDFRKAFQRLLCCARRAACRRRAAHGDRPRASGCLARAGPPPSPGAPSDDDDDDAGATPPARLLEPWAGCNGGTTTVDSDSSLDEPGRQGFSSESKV", "conditions": "read-out: Ki β1; Ki ± SEM, n=3"}, "β2-AR": {"biological_target": "β2-AR", "conditions": "previously reported; cited from earlier work"}, "1321N1 cells [2]": {"test_system": "1321N1 cells", "assay": "Inhibition of mitogenesis, [3H]-thymidine incorporation in 1321N1 cells", "format": "cell-based, human"}, "rat cardiomyocyte": {"test_system": "rat cardiomyocyte", "assay": "Rat cardiomyocyte contractility model", "format": "cell-based"}, "[3]": {"conditions": "IV 5 mg/kg"}, "1321N1 cells [4]": {"test_system": "1321N1 cells", "assay": "Cell cycle distribution by flow cytometry in 1321N1 cells", "conditions": "20 hours"}, "U118 cells": {"test_system": "U118 cells", "conditions": "[3H]-thymidine incorporation"}, "[5]": {"conditions": "rat, IV 5 mg/kg, 5 min, listed as [^3H]—(R,R)-methoxyfenoterol"}, "[6]": {"conditions": "rat, IV 5 mg/kg, 60 min, listed as [^3H]—(R,R)-methoxyfenoterol"}}, "note": "Where “and” joins values, the source holds several entries; their conditions need not be identical. Equal entries are not always repeated. Structures can show the parent of a compound that is named as a salt. Where two headings read alike, the source gives them in different places."}
{"molecule": "[3H]COc1ccc(C[C@@H](C)NC[C@H](O)c2cc(O)cc(O)c2)cc1", "note": "[[^3H]-(R,R)-methoxyfenoterol, [^3H]—(R,R)-methoxyfenoterol chloride]", "values": [{"measurement": "decrease of plasma level", "setting": "[1]; from 5 minutes to 60 minutes", "result": 62, "unit": "%"}, {"measurement": "passage through the blood brain barrier", "setting": "[1]; rat, IV", "result": "pass through the blood brain barrier"}, {"measurement": "Brain level, Mean", "setting": "[1]; rat, IV 5 mg/kg, 5 min", "result": 0.92, "unit": "μg-equiv/g"}, {"measurement": "Percent of Dose in Brain, Mean", "setting": "[1]; rat, IV 5 mg/kg, 5 min", "result": 0.14, "unit": "%"}, {"measurement": "Plasma level, Mean", "setting": "[1]; rat, IV 5 mg/kg, 5 min", "result": 3.25, "unit": "μg-equiv/ml"}, {"measurement": "Brain level, Mean", "setting": "[1]; [5]", "result": "0.92±0.10", "unit": "μg-equiv/g"}, {"measurement": "Plasma level, Mean", "setting": "[1]; [5]", "result": "3.25±0.15", "unit": "μg-equiv/ml"}, {"measurement": "Brain level, Mean", "setting": "[1]; rat, IV 5 mg/kg, 15 min", "result": 0.80, "unit": "μg-equiv/g"}, {"measurement": "Percent of Dose in Brain, Mean", "setting": "[1]; rat, IV 5 mg/kg, 15 min", "result": 0.12, "unit": "%"}, {"measurement": "Plasma level, Mean", "setting": "[1]; rat, IV 5 mg/kg, 15 min", "result": 1.79, "unit": "μg-equiv/ml"}, {"measurement": "Brain level, Mean", "setting": "[1]; rat, IV 5 mg/kg, 30 min", "result": 0.72, "unit": "μg-equiv/g"}, {"measurement": "Percent of Dose in Brain, Mean", "setting": "[1]; rat, IV 5 mg/kg, 30 min", "result": 0.11, "unit": "%"}, {"measurement": "Plasma level, Mean", "setting": "[1]; rat, IV 5 mg/kg, 30 min", "result": 1.53, "unit": "μg-equiv/ml"}, {"measurement": "Brain level, Mean", "setting": "[1]; rat, IV 5 mg/kg, 60 min", "result": 0.70, "unit": "μg-equiv/g"}, {"measurement": "Percent of Dose in Brain, Mean", "setting": "[1]; rat, IV 5 mg/kg, 60 min", "result": 0.11, "unit": "%"}, {"measurement": "Plasma level, Mean", "setting": "[1]; rat, IV 5 mg/kg, 60 min", "result": 1.24, "unit": "μg-equiv/ml"}, {"measurement": "Brain level, Mean", "setting": "[1]; [6]", "result": "0.70±0.37", "unit": "μg-equiv/g"}, {"measurement": "Plasma level, Mean", "setting": "[1]; [6]", "result": "1.24±0.43", "unit": "μg-equiv/ml"}, {"measurement": "percent dose found in the brain, any given animal", "setting": "[1]; rat, IV 5 mg/kg, over 60 minutes", "result": "no more than 0.17%"}]}
{"molecule": "O=C(O)/C=C/C(=O)O.Oc1cc(O)cc([C@@H](O)CNCCc2ccccc2)c1", "note": "[(R)-7, (R)-(−)-5-(1-Hydroxy-2-phenethylaminoethyl)-1,3-benzenediol fumarate]", "values": [{"measurement": "Kiβ2 value higher than (R,S)-3", "setting": "human β2-AR; relative to (R,S)-3", "result": 32, "unit": "%"}, {"measurement": "Ki", "setting": "β1-AR", "result": "42.5 ± 3.47", "unit": "µM"}]}
{"molecule": "Oc1cc(O)cc([C@H](O)CNCCc2ccccc2)c1", "note": "[(S)-7, (S)-(+)-5-(1-hydroxy-2-phenethylaminoethyl)-1,3-benzenediol Fumarate]", "values": [{"measurement": "Ki", "setting": "β1-AR", "result": "52.2 ± 3.01", "unit": "µM"}]}
{"molecule": "CC(C)NCC(O)c1ccc(O)c2[nH]c(=O)ccc12", "note": "(stereo not shown) [Compound 50]", "values": [{"measurement": "Ki β1/Ki β2 ratio", "setting": "β2-AR", "result": 1.7}]}
{"molecule": "Cc1ccc(OCC(O)C(C)NC(C)C)c2c1CCC2", "note": "(stereo not shown) [ICI 118-551]", "values": [{"measurement": "shift of the (R,R)-fenoterol dose response curve", "setting": "1321N1 cells [2]; 1 nM and 3 nM", "result": "parallel rightward shift"}, {"measurement": "pA2 against inhibitory effect of (R,R)-fenoterol", "setting": "1321N1 cells [2]; [3H]-thymidine incorporation, 1321N1 cells", "result": 8.9}, {"measurement": "slope of competitive inhibition", "setting": "1321N1 cells [2]; [3H]-thymidine incorporation, versus (R,R)-fenoterol", "result": "−1.3±0.3"}]}
{"molecule": "C[C@@H](Cc1ccc(O)cc1)NC[C@@H](O)c1cc(O)cc(O)c1", "note": "(racemic) [(S,S)-1, (S,S)-(±)-Fenoterol]", "values": [{"measurement": "EC50", "setting": "rat cardiomyocyte", "result": 55, "unit": "µM"}]}
{"molecule": "(R,R)-TA-2005 [Compound 49]", "values": [{"measurement": "Ki", "setting": "β2-AR", "result": 0.012, "unit": "µM"}, {"measurement": "Ki β1/Ki β2 ratio", "setting": "β2-AR", "result": 53}]}
{"molecule": "COc1ccc(C[C@@H](C)NC[C@H](O)c2cc(O)cc(O)c2)cc1.O=C(O)/C=C/C(=O)O", "note": "[(R,R)-2, (R,R)-(−)-1-p-Methoxyphenyl-2-(β-3′,5′-dihydroxy-phenyl-β-oxy)ethylamino-propane Fumarate]", "values": [{"measurement": "plasma concentration, individual rat", "setting": "[3]; 300 min, listed as (R,R)-methoxyfenoterol", "result": "0.06 ug/ml and 0.07 ug/ml (3×) and 0.09 ug/ml"}, {"measurement": "systemic exposure (AUC) compared to (R,R)-fenoterol", "setting": "[3]; rat", "result": "significantly higher"}, {"measurement": "B", "setting": "[3]; rat, two-compartment open model", "result": 0.3900, "unit": "µg/mL"}]}
{"molecule": "NCC(O)c1ccc(O)c2[nH]c(=O)ccc12", "note": "(stereo not shown) [Compound 51]", "values": [{"measurement": "Ki β1/Ki β2 ratio", "setting": "β2-AR", "result": 1.3}]}
{"molecule": "C[C@@H](Cc1cccc2ccccc12)NC[C@H](O)c1cc(O)cc(O)c1.O=C(O)/C=C/C(=O)O", "note": "[(R,S)-5, (R,S)-(−)-5-{1-hydroxy-2-[1-methyl-2-(1-naphthyl)ethylamino]ethyl}-1,3-benzenediol Fumarate]", "values": [{"measurement": "plasma concentration, individual rat", "setting": "[3]; 240 min, listed as (R,S)-naphthylfenoterol, Fumarate", "result": "0.11 ug/ml (3×) and 0.13 ug/ml (2×)"}, {"measurement": "plasma concentration, individual rat", "setting": "[3]; 300 min, listed as (R,S)-naphthylfenoterol, Fumarate", "result": "0.10 ug/ml (2×) and 0.11 ug/ml (2×) and 0.12 ug/ml"}, {"measurement": "systemic exposure (AUC) compared to (R,R)-fenoterol", "setting": "[3]; rat", "result": "significantly higher"}, {"measurement": "plasma concentration, Average", "setting": "[3]; rat, 15 min", "result": 680, "unit": "ng/mL"}, {"measurement": "plasma concentration, Average", "setting": "[3]; rat, 30 min", "result": 430, "unit": "ng/mL"}, {"measurement": "plasma concentration, Average", "setting": "[3]; rat, 60 min", "result": 340, "unit": "ng/mL"}, {"measurement": "plasma concentration, Average", "setting": "[3]; rat, 120 min", "result": 240, "unit": "ng/mL"}, {"measurement": "plasma concentration, Average", "setting": "[3]; rat, 240 min", "result": 120, "unit": "ng/mL"}, {"measurement": "plasma concentration, Average", "setting": "[3]; rat, 300 min", "result": 110, "unit": "ng/mL"}, {"measurement": "plasma concentration, Average", "setting": "[3]; rat, 360 min", "result": 90, "unit": "ng/mL"}]}
{"molecule": "C[C@H](Cc1cccc2ccccc12)NC[C@@H](O)c1cc(O)cc(O)c1.O=C(O)/C=C/C(=O)O", "note": "(racemic) [(S,R)-5, (S,R)-(+)-5-{1-hydroxy-2-[1-methyl-2-(1-naphthyl)ethylamino]ethyl}-1,3-benzenediol Fumarate]", "values": [{"measurement": "affinity for the β2-AR weaker than (R,R)-5", "setting": "human β2-AR", "result": 7, "unit": "fold"}]}
{"molecule": "C[C@H](Cc1ccc(O)cc1)NC[C@H](O)c1cc(O)cc(O)c1", "note": "[(R,R)-1, (R,R)-(−)-Fenoterol]", "values": [{"measurement": "% Phase Distribution G2", "setting": "1321N1 cells [4]; 0.1 nM", "result": 1.8, "unit": "%"}, {"measurement": "% Phase Distribution G1", "setting": "1321N1 cells [4]; 10.0 nM", "result": 76.0, "unit": "%"}, {"measurement": "% Phase Distribution G2", "setting": "1321N1 cells [4]; 10.0 nM", "result": 2.1, "unit": "%"}, {"measurement": "% Phase Distribution G2", "setting": "1321N1 cells [4]; 1000 nM", "result": 0.7, "unit": "%"}, {"measurement": "IC50 higher than the value calculated in 1321N1 cells", "setting": "U118 cells", "result": 50, "unit": "fold"}]}
